This experiment addresses T1, enkephalinase Al (Rattus norvegicus, UniProt P07861).
T1 construct: the solubilised enzymes contained in the supernatent separated by DEAE-cellulose column chromatograph; from tissue; host or cells: rat striatum (washed membrane pellet, solubilised with Triton X-100, then DEAE-cellulose and Sephacryl S.300 chromatography)
T1 sequence (P07861 1-750): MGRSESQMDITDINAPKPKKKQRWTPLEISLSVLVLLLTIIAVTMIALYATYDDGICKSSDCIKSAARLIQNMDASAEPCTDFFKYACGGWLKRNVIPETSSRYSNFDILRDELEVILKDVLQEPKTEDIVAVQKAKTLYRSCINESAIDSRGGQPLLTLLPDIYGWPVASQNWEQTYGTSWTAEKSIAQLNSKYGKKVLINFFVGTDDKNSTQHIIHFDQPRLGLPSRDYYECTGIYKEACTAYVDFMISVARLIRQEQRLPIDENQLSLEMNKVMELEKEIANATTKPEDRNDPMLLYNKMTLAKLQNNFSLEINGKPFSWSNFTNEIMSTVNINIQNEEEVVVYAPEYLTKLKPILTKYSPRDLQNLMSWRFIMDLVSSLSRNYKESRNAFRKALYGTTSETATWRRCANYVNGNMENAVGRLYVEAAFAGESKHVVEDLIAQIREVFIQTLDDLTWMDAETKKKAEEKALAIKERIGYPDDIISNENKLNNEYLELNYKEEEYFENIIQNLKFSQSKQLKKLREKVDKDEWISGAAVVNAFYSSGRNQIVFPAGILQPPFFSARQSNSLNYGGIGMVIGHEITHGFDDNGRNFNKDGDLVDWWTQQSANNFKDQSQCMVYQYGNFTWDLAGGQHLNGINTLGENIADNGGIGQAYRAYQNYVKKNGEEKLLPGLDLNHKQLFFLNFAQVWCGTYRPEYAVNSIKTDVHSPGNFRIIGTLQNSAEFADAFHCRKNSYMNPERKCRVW
The experiment can be described thus: enkephalinase-inhibiting activity (3H-TGG generation from 3H-leucine enkephalin, TLC separation, scintillation counting). It counts as biochemical, Rats. The following applies: approximate IC50 determined graphically; concentration required for 50% inhibition of 3H-TGG generation; leucine enkephalin 5 x 10^-5M, 30°C. The text has this:
Rats were killed by decapitation and the striata dissected out on ice. […] The resulting supernatent was discarded and the remaining pellet washed three times.
Enkephalinase-inhibiting activity was estimated by the following procedure.

As a reminder, the IC50 is the concentration that gives 50% inhibition. The low end stands for greater potency in that assay, the high end for weaker potency in that assay.

Where a name gives a salt, the structure may show the parent alone.

Compound `O=C(O)CNC(=O)[C@H](Cc1ccccc1)NP(=O)(O)O` [compound 2, N-Phosphoryl-L-phenylalanyl-glycine trisodium salt] had an IC50 of 15 nM. That is a double-digit nanomolar value.
The compound “N-(Phosphoryl-phenylalanyl)leucine [compound 1]” had an IC50 of 7 nM.

Source of the values: patent publication EP0075895A2, “Pharmaceutical amides, and preparation, formulations and use thereof” (THE WELLCOME FOUNDATION LIMITED, priority 1981, dated 1983).
